Assay results published in the OligoGym collection.
Where “and” joins values, the source holds several entries; their conditions need not be identical. Identical values can stand only once. After the bases stand the sugars from the 5' end (letter, count) and the backbone: PS all phosphorothioate, else s phosphorothioate and o phosphodiester by linkage. Methylation of C is not given here. e = 2'-O-(2-methoxyethyl) (MOE); k = constrained ethyl (cEt); d = 2'-deoxy (DNA)

Molecular target: MALAT1
Details: ASO, A431, 0.005 µM

Row | Sequence | target mRNA inhibition
1 | AGACTAAAGGCTTCAG (sugars k3 d10 k3, PS) | 12%
2 | AGAGCTACTTAGCTGT (sugars k3 d10 k3, PS) | 16%
3 | AGAGGGAGTTGAGGCA (sugars k3 d10 k3, PS) | 40%
4 | AGATAATGTTCTCATC (sugars k3 d10 k3, PS) | 11%
5 | AGATATTGTGCTGTTA (sugars k3 d10 k3, PS) | 17%
6 | AGATCGCCTTCAAATT (sugars k3 d10 k3, PS) | 41%
7 | AGATGGACATTGCCTC (sugars k3 d10 k3, PS) | 48%
8 | AGATTAGTAGTCAAAG (sugars k3 d10 k3, PS) | -12%
9 | AGATTGCCCCAACACT (sugars k3 d10 k3, PS) | 38%
10 | AGCAACTCTTCTGATA (sugars k3 d10 k3, PS) | 30%
11 | AGCACCGCTTGAGATT (sugars k3 d10 k3, PS) | 42% and 20%
12 | AGCAGTAGGGCTTCTC (sugars k3 d10 k3, PS) | 3%
13 | AGCATACCTTAACATC (sugars k3 d10 k3, PS) | 19%
14 | AGCCAAGCACTCATAT (sugars k3 d10 k3, PS) | 17%
15 | AGCCACTCAAATGCCT (sugars k3 d10 k3, PS) | 28%
16 | AGCCAGTCAGGGACAC (sugars k3 d10 k3, PS) | -3%
17 | AGCCTTCGGTGCCTTT (sugars k3 d10 k3, PS) | 5%
18 | AGCGGGATCAGAACAG (sugars k3 d10 k3, PS) | 43%
19 | AGCTACTGGCTGCATC (sugars k3 d10 k3, PS) | 20%
20 | AGCTAGGGAAAAGTGG (sugars k3 d10 k3, PS) | -10%
21 | AGCTTCAACTGGGAAT (sugars k3 d10 k3, PS) | 13%

Row | Sequence | target mRNA inhibition
22 | AGCTTCAATCACAAAT (sugars k3 d10 k3, PS) | 23%
23 | AGGAAGGCTCCATGGT (sugars k3 d10 k3, PS) | 11%
24 | AGGATGTATATAGTTC (sugars k3 d10 k3, PS) | 2%
25 | AGGCAAACGAAACATT (sugars k3 d10 k3, PS) | 35%
26 | AGGCAAATTAATGGCC (sugars k3 d10 k3, PS) | 8%
27 | AGGCTATTACCTGAAA (sugars k3 d10 k3, PS) | -5%
28 | AGGGACGGTTGAGAAG (sugars k3 d10 k3, PS) | 14%
29 | AGGGCTTTACTTTCCA (sugars k3 d10 k3, PS) | -5%
30 | AGGTATAGTTTACCAC (sugars k3 d10 k3, PS) | -7%
31 | AGTAACTACCAGCCAT (sugars k3 d10 k3, PS) | 45%
32 | AGTACGAAACTCCCCC (sugars k3 d10 k3, PS) | 28%
33 | AGTCAGGGACACACCC (sugars k3 d10 k3, PS) | -16%
34 | AGTCCCTGAAGGTGTT (sugars k3 d10 k3, PS) | 28%
35 | AGTCTCGGGCTGCAGG (sugars k3 d10 k3, PS) | 3%
36 | AGTGTGATAGTTCAGG (sugars k3 d10 k3, PS) | 7%
37 | AGTGTTCGCAGACAAA (sugars k3 d10 k3, PS) | 34%
38 | ATAACGAAGAGATACC (sugars k3 d10 k3, PS) | 6%
39 | ATACGACTGCTTAAAA (sugars k3 d10 k3, PS) | 20%
40 | ATACTCTTCCAAGGAT (sugars k3 d10 k3, PS) | 35%
41 | ATACTTCATTACCCCA (sugars k3 d10 k3, PS) | 50%
42 | ATACTTGTCTTAGCTT (sugars k3 d10 k3, PS) | 60% and 75% and 50%

Row | Sequence | target mRNA inhibition
43 | ATAGACGGAGAACAAC (sugars k3 d10 k3, PS) | 21%
44 | ATAGCAGCGGGATCAG (sugars k3 d10 k3, PS) | 57%
45 | ATAGTGTAAAACATTG (sugars k3 d10 k3, PS) | 0%
46 | ATATTTTGCCCCCACC (sugars k3 d10 k3, PS) | 2%
47 | ATCACCGGAATTCGAT (sugars k3 d10 k3, PS) | 17%
48 | ATCACTTTAGAGGCTT (sugars k3 d10 k3, PS) | 53%
49 | ATCATTGGGAGTTACT (sugars k3 d10 k3, PS) | 54%
50 | ATCCTGAAATCCCCTA (sugars k3 d10 k3, PS) | 8%
51 | ATCGCCTTCAAATTAT (sugars k3 d10 k3, PS) | 60% and 76%
52 | ATCTAGGCCATCATAC (sugars k3 d10 k3, PS) | 32%
53 | ATCTCCCACCTGTCTA (sugars k3 d10 k3, PS) | 45%
54 | ATCTGCGGTTTCCTCA (sugars k3 d10 k3, PS) | 58%
55 | ATGCCCACAAGGATCC (sugars k3 d10 k3, PS) | 33%
56 | ATGCTTATTCCCCAAT (sugars k3 d10 k3, PS) | 52%
57 | ATGGAGGTATGACATA (sugars k3 d10 k3, PS) | 20%
58 | ATGGAGGTATGACATATAAT (sugars e5 d10 e5, PS) | 22% and 25%
59 | ATGTACTCAGCTTCAA (sugars k3 d10 k3, PS) | 44%
60 | ATGTTAAGAGAAGCCC (sugars k3 d10 k3, PS) | -17%
61 | ATTAAAGAGTGTTCGC (sugars k3 d10 k3, PS) | 69% and 44%
62 | ATTAATGCACTGGTAC (sugars k3 d10 k3, PS) | 16%
63 | ATTACCCCAACTAAAC (sugars k3 d10 k3, PS) | 9%

Row | Sequence | target mRNA inhibition
64 | ATTACTTCCGTTACGA (sugars k3 d10 k3, PS) | 43%
65 | ATTATATGCTCATCAC (sugars k3 d10 k3, PS) | 51%
66 | ATTATCCTGATATTGG (sugars k3 d10 k3, PS) | 46%
67 | ATTATGGATCATGCCC (sugars k3 d10 k3, PS) | 17%
68 | ATTGGGAGTTACTTGC (sugars k3 d10 k3, PS) | 63% and 85%
69 | ATTTAACTTCCCCCAG (sugars k3 d10 k3, PS) | 18%
70 | ATTTATAGACCCCTGA (sugars k3 d10 k3, PS) | -8%
71 | CAAAACCCCCGGAACT (sugars k3 d10 k3, PS) | 0%
72 | CAAAACGAATTCAGGG (sugars k3 d10 k3, PS) | 26%
73 | CAACACTCAGCCTTTA (sugars k3 d10 k3, PS) | -1%
74 | CAACCGTAACAGGCCA (sugars k3 d10 k3, PS) | 23%
75 | CAACCTCCGTCATGTT (sugars k3 d10 k3, PS) | 35%
76 | CAACTCTTCTGATAAC (sugars k3 d10 k3, PS) | 16%
77 | CAAGAACTAGCACCTG (sugars k3 d10 k3, PS) | 7%
78 | CAAGCTGAACTATCAC (sugars k3 d10 k3, PS) | 27%
79 | CAAGGATCCAAGCTAC (sugars k3 d10 k3, PS) | 19%
80 | CAAGGATGTATATAGT (sugars k3 d10 k3, PS) | 0%
81 | CAAGTAAGCCCCACCC (sugars k3 d10 k3, PS) | 26%
